According to the supplement of paper PMC10307832:

Experiments:
Assay in all cases: relative viability (nuclei count vs DMSO), 5 days (fraction); higher = more cells survive
[1] = compound: C1=CC2=NC=CN=C2C=C1/C=C/3\C(=O)NC(=O)S3 + CC(C)C[C@H](NC(=O)[C@H](Cc1ccccc1)NC(=O)c1cnccn1)B(O)O [Bortezomib] (partner 0.002 µM)
Procedure, shortened: (§1)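 Lung cancer cell lines in 1536-well plates were dosed by pin tool the day after seeding, either with one drug alone or with a fixed anchor-drug dose plus five library-drug doses (not always all listed) in √10 steps. After 5 days, cells were fixed and their nuclei stained in one step (final 0.05% Triton X-100, 1% formaldehyde, 1 ug/ml Hoechst), then counted on 4× images. Relative viability is the nuclei count in treated wells divided by that in vehicle wells. Values are medians of duplicate plates.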

[2] = compound: C1=CC2=NC=CN=C2C=C1/C=C/3\C(=O)NC(=O)S3 + Cc1nc(Nc2ncc(C(=O)Nc3c(C)cccc3Cl)s2)cc(N2CCN(CCO)CC2)n1 [Dasatinib] (partner 0.075 µM)
Procedure, shortened: as §1

BGJ398 + Trametinib = compound: CCN1CCN(c2ccc(Nc3cc(N(C)C(=O)Nc4c(Cl)c(OC)cc(OC)c4Cl)ncn3)cc2)CC1 [BGJ398] + CC(=O)Nc1cccc(-n2c(=O)n(C3CC3)c(=O)c3c(Nc4ccc(I)cc4F)n(C)c(=O)c(C)c32)c1 [Trametinib] (partner 0.02 µM)
Procedure, shortened: as §1

BGJ398 + Foretinib = compound: CCN1CCN(c2ccc(Nc3cc(N(C)C(=O)Nc4c(Cl)c(OC)cc(OC)c4Cl)ncn3)cc2)CC1 [BGJ398] + COc1cc2c(Oc3ccc(NC(=O)C4(C(=O)Nc5ccc(F)cc5)CC4)cc3F)ccnc2cc1OCCCN1CCOCC1 [Foretinib] (partner 0.25 µM)
Procedure, shortened: as §1

| Cell Line | relative viability ([1]; first compound 0.02 µM) | relative viability ([1]; first compound 0.06325 µM) | relative viability ([1]; first compound 0.2 µM) | relative viability ([1]; first compound 0.6325 µM) | relative viability ([1]; first compound 2 µM) | relative viability ([2]; first compound 0.02 µM) | relative viability ([2]; first compound 0.06325 µM) | relative viability ([2]; first compound 0.2 µM) | relative viability ([2]; first compound 0.6325 µM) | relative viability ([2]; first compound 2 µM) | relative viability (BGJ398 + Trametinib; first compound 0.01 µM) | relative viability (BGJ398 + Trametinib; first compound 0.03162 µM) | relative viability (BGJ398 + Trametinib; first compound 0.1 µM) | relative viability (BGJ398 + Trametinib; first compound 0.3162 µM) | relative viability (BGJ398 + Trametinib; first compound 1 µM) | relative viability (BGJ398 + Foretinib; first compound 0.01 µM) | relative viability (BGJ398 + Foretinib; first compound 0.03162 µM) | relative viability (BGJ398 + Foretinib; first compound 0.1 µM) | relative viability (BGJ398 + Foretinib; first compound 0.3162 µM) | relative viability (BGJ398 + Foretinib; first compound 1 µM) |
| --- | --- | --- | --- | --- | --- | --- | --- | --- | --- | --- | --- | --- | --- | --- | --- | --- | --- | --- | --- | --- |
| NCI-H1975 | 0.355 | 0.365 | 0.401 | 0.368 | 0.36 | 0.293 | 0.38 | 0.369 | 0.334 | 0.318 | 0.324 | 0.515 | 0.391 | 0.31 | 0.25 | 0.989 | 1.12 | 1.06 | 0.879 | 0.97 |
| CAL-12T | 1.05 | 1.06 | 0.921 | 0.97 | 0.966 | 0.417 | 0.34 | 0.439 | 0.304 | 0.139 | 0.302 | 0.428 | 0.315 | 0.404 | 0.308 | 1.04 | 1.13 | 1.04 | 1.11 | 1.12 |
| NCI-H1623 | – | – | – | – | – | 0.511 | 0.523 | 0.526 | 0.524 | 0.422 | – | – | – | – | – | 0.907 | 0.723 | 0.937 | 0.84 | 0.713 |
| HCC-44 | 0.818 | 0.958 | 0.869 | 0.883 | 0.71 | – | – | – | – | – | 1.01 | 1.03 | 1.03 | 1.04 | 0.949 | – | – | – | – | – |
| EKVX | 0.906 | 1.07 | 0.969 | 0.911 | 0.871 | 0.515 | 0.356 | 0.701 | 0.524 | 0.427 | 0.326 | 0.336 | 0.368 | 0.261 | 0.359 | 0.763 | 0.409 | 0.805 | 0.643 | 0.686 |
| NCI-H1651 | 0.956 | 0.637 | 0.949 | 0.96 | 0.893 | 0.403 | 0.452 | 0.461 | 0.311 | 0.21 | 0.804 | 0.876 | 0.922 | 0.806 | 0.841 | 0.753 | 0.781 | 0.94 | 0.73 | 0.677 |
| NCI-H1944 | – | – | – | – | – | 0.227 | 0.191 | 0.209 | 0.193 | 0.147 | 0.371 | 0.452 | 0.403 | 0.387 | 0.382 | 0.946 | 0.889 | 0.941 | 0.831 | 0.826 |
| NCI-H1703 | 0.288 | 0.322 | 0.38 | 0.474 | 0.489 | – | – | – | – | – | – | – | – | – | – | 0.37 | 0.329 | 0.342 | 0.278 | 0.331 |
| Calu-6 | 1.03 | 1.1 | 1.22 | 1.1 | 0.98 | – | – | – | – | – | – | – | – | – | – | 0.879 | 0.819 | 0.912 | 0.836 | 0.88 |
| EBC-1 | 0.538 | 0.648 | 0.587 | 0.546 | 0.816 | – | – | – | – | – | – | – | – | – | – | 0.0959 | 0.0812 | 0.0909 | 0.109 | 0.108 |
| SW 1573 | 0.996 | 1.21 | 1.17 | 0.835 | 0.95 | 0.392 | 0.76 | 0.69 | 0.523 | 0.291 | 0.477 | 0.587 | 0.455 | 0.448 | 0.47 | 0.91 | 1.13 | 0.866 | 0.594 | 0.973 |
| A-427 | 0.991 | 1.1 | 1.04 | 0.915 | 0.965 | 0.685 | 0.753 | 0.692 | 0.659 | 0.541 | 0.624 | 0.595 | 0.585 | 0.427 | 0.438 | 1.09 | 0.919 | 0.954 | 0.715 | 0.623 |
| NCI-H2347 | 0.769 | 1.17 | 1.05 | 0.932 | 0.926 | 0.318 | 0.26 | 0.306 | 0.304 | 0.293 | 0.32 | 0.239 | 0.275 | 0.309 | 0.259 | 1.02 | 1.12 | 0.838 | 0.717 | 0.741 |
| NCI-H1355 | 1.02 | 1.23 | 1.18 | 1.2 | 1.05 | 0.476 | 0.599 | 0.709 | 0.714 | 0.47 | 0.374 | 0.44 | 0.452 | 0.382 | 0.329 | 0.925 | 0.98 | 1.03 | 0.951 | 0.898 |
| NCI-H358 | – | – | – | – | – | 0.151 | 0.202 | 0.167 | 0.14 | 0.105 | 0.137 | 0.127 | 0.134 | 0.126 | 0.148 | 0.61 | 0.725 | 0.682 | 0.718 | 0.951 |
| PC-3 [JPC-3] | 0.735 | 0.853 | 0.879 | 0.851 | 0.852 | 0.84 | 1.05 | 0.968 | 1.01 | 0.821 | 0.75 | – | 0.787 | – | 0.782 | 1.15 | – | 1.06 | 1 | 1.02 |
| NCI-H2228 | 0.948 | 0.881 | 1.23 | 1.06 | 0.82 | 0.414 | 0.448 | 0.47 | 0.389 | 0.388 | 0.42 | 0.694 | 0.503 | 0.348 | 0.419 | 0.776 | 0.893 | 0.848 | 0.822 | 0.826 |
| HOP-62 | 0.908 | 0.819 | 1.07 | 0.757 | 0.707 | 0.651 | 0.736 | 0.605 | 0.621 | 0.503 | 0.395 | 0.364 | 0.359 | 0.291 | 0.288 | 0.939 | 1.13 | 1.18 | 1.19 | 1.07 |
| HARA | 1.11 | 1.18 | 1.26 | 1.09 | 1.15 | 0.278 | 0.315 | 0.3 | 0.243 | 0.194 | 0.778 | 0.41 | 0.43 | 0.604 | 0.437 | 0.941 | 0.901 | 0.829 | 0.905 | 0.79 |
